The record followed here is US20240400596A1, “PLATINUM-BASED PHOTOINITIATOR AND PHOTOCROSSLINKER, THEIR USE FOR ADDUCT FORMATION” (City University of Hong Kong, priority 2023, published 2024).

Data set [1] can be described thus: Dark stability of cisPt(IV)-1, by HPLC. The data set is classed as physicochemical. The conditions noted are these: in the dark for about 30 min, free or mixed with radical spin traps. On the procedure: 1 mM cisPt(IV)-1 (Pt(IV) complex of Formula (IIa)) and cisplatin in water was mixed with 1 or 10 mM DMPO or TEMPO. The mixed solution was irradiated with UV or kept in the dark for 10 min. The solution was analyzed by HPLC. The Pt(I) adduct products were characterized by ESI-HRMS, and the acetate radical adduct was separated and characterized by proton NMR. For the study of photolysis rate, the solution was irradiated with UV (365 nm, 9.8 mW/cm^2) for 0.5, 1, 2, 3, 4, 5 and 10 min, with or without the radical spin trap and analyzed by HPLC. For the study of dark stability, the solution was incubated at room temperature in the dark for 30 min before examined by HPLC.

Data set [2] is described as follows: Photolysis of Pt complexes in water under UV, by RP-HPLC. The format is physicochemical. The conditions noted are these: 1 mM in water, 365 nm, 9.8 mW/cm^2, 10 min. On the procedure: The photolysis of Pt complexes in test tubes was examined by reversed-phase high performance liquid chromatography (RP-HPLC). 1 mM Pt complexes were dissolved in water. Then the mixed solution was irradiated with UV light (365 nm, 9.8 mW/cm^2) for 10 min at room temperature, and the solution was examined by HPLC. The percentage of remained Pt complexes was obtained from the ratio of the peak area of Pt complexes upon irradiation to that of the intact Pt complexes.

Take `CC(=O)[O][Pt]([NH2])([NH2])([Cl])([Cl])[O]C(C)=O` [cisPt(IV)-1]: the “stability in the dark” value in data set [1] is “remained intact”.

For the compound `O=C1[O][Pt]2([NH][C@@H]3CCCC[C@H]3[NH]2)[O]C1=O` [oxaliplatin], the “percentage of intact Pt complex remaining upon irradiation” value in data set [2] is 99%.
